Our source for the melting point values is a melting point compilation (Tetko et al.; mined from patent text by program, amines drawn as free bases though some values may be those of a salt).

The structures appear in SMILES notation.

In the case of `OCc1cccnc1Nc1ccccc1`, the melting point (in general, the temperature, or range, at which the solid turns liquid) fell in the range of 180 to 182 °C.

`CC(c1c[nH]cn1)c1cccc2c1OC(C)(C)OC2` (stereo not drawn): the melting point came out at 118 °C.

For the compound `CCCCCCCCCCOc1cc(OCCCCCCCCCC)cc(N(CC(=O)OC)CC(=O)OC)c1`, the melting point was in the range of 36 to 38 °C.

Compound `CCCC(CC)(CC)C(=O)O[C@H]1C[C@H](O)C=C2C=C[C@H](C)[C@H](CC[C@@H]3C[C@@H](O)CC(=O)O3)[C@H]21` returned a melting point of 130 to 131 °C.

In turn, `O=C(CCC#Cc1ccccn1)Nc1cccc(F)c1` had a melting point of 110 to 114 °C.

For the compound `Cc1nnc(-c2ccc3ncn(-c4ccc(OC(F)F)cc4)c3c2)o1`, the melting point lay within 154 to 155 °C.

As to `CC(=O)Oc1cc(/C=C/c2ccccc2)cc(OC(C)=O)c1`, the melting point is 90 to 90.5 °C.

Compound `O=C(O)CCCCCCCCNS(=O)(=O)c1ccc(Br)cc1` showed a melting point of 124 to 125 °C.

The compound `c1ccc(C(OC(c2ccccc2)(c2ccccc2)c2ccccc2)(c2ccccc2)c2ccccc2)cc1` displayed a melting point of 89 to 91 °C.

Regarding `CCOC(=O)NCCC(c1cc(F)ccc1F)S(=O)(=O)c1ccc(Cl)cc1` (stereo not drawn), the melting point was 121 to 122 °C.

In the case of `CC(=O)Oc1c(C)c2c(c(C)c1OC(C)=O)SC(C)O2` (stereo not drawn), the melting point is 82 to 84 °C.

Turning to `NC(=O)C1=NN(c2cccc(COCC3CCCCC3)c2)C(c2ccccc2F)N1` (stereo not drawn), the melting point was in the range of 148 to 149 °C.

As to `Cc1cn(-c2cccc(C(=O)CC(=O)Nc3cc(-c4ccccc4F)ccc3NC(=O)OC(C)(C)C)c2)c(C)n1`, the melting point was determined as 145 °C.

As for `CCCCc1nc2cccc(C)c2c(=O)n1Cc1ccc(C2(C(=O)O)CC=CC2)s1`, the melting point lay within 150 to 151 °C.

`COc1ccccc1N(C(N)=O)c1ccc(CC(=O)O)cc1C`: the melting point lay within 260 to 264 °C.

Compound `O=[N+]([O-])c1ccc(Oc2cccc3cccnc23)c(Cl)c1` displayed a melting point of 113 to 115 °C.

The compound `COc1ccc2c(c1)c(CC(=O)Oc1cccc(CO[N+](=O)[O-])c1)c(C)n2C(=O)c1ccc(Cl)cc1` gave a melting point of 115 to 117 °C.

Take `CCN1C(=O)C(C)(C)C(=O)N(C)c2cc(CN(CCn3cc(C)c4occc4c3=O)Cc3ncccc3N)ccc21`: the melting point is 188 to 192 °C.

For the compound `CC(CCCc1ccccc1)c1cc2oc(=O)c3c(c2cc1O)C(=O)CCC3` (stereo not drawn), the melting point is 200 to 202 °C.

With `COC(=O)Cc1ccc2c(c1)CCc1ccccc1S2`, the melting point lay within 103 to 105 °C.

Compound `CCCc1cc(O)c(C#N)s1` showed a melting point of 78 °C.

Compound `Cc1cc(-c2cc(C(F)(F)F)nn2-c2ccc(S(C)(=O)=O)cc2)ccc1-c1cscn1` returned a melting point of 140 to 142 °C.

Turning to `CCOc1ccccc1OCC1(O)CCNC1` (stereo not drawn), the melting point was 108 to 110 °C.

Turning to `CCN(c1nc(C)cc(C(=O)O)n1)c1ccc(C(C)C)cc1Br`, the melting point was in the range of 102 to 104 °C.

In the case of `C=C1CC2(C)C(CCC2(C)O)C2CCC3=CC(=O)CCC3(C)C12` (stereo not drawn), the melting point lay in the range of 155 to 157 °C.

Turning to `O=C(Nc1ccccc1Oc1cc(Cl)cc(Cl)c1)C1CCNCC1`, the melting point was in the range of 138 to 139 °C.

`CON(C(=O)Nc1nc(OCC(F)(F)F)cc(OCC(F)(F)F)n1)c1ccc(Cl)cc1` returned a melting point of 275 to 276 °C.

`CC(C#N)(c1ccc(Cl)cc1)c1ccc(-n2ncc(=O)[nH]c2=O)cc1Cl` (stereo not drawn) came in with a melting point of 235 °C.

`CC1=C(c2ccc(C(=O)N3Cc4cccn4Cc4ccccc43)cc2)CCCC1=O` gave a melting point of 95 to 97 °C.

In turn, `CC(=O)c1ccc(Cc2ccc(F)cc2)o1` registered a melting point of 27 to 29 °C.

For `Cc1ccc2oc3ccc(C)cc3c2c1`, the melting point is 62 to 64 °C.

`CN1CCC(c2c[nH]c3ccc(C(=O)c4ccc5ccccc5c4)cc23)CC1` showed a melting point of 92 °C.

For the compound `Cc1nc(C(F)(F)F)ccc1NC(=NC#N)NC(NC(=O)c1ccc(Cl)cc1)C(C)(Cl)Cl` (stereo not drawn), the melting point lay in the range of 115 to 116 °C.
